This note sets out measurements from patent US12466821B2 (Novartis AG, priority 2018, dated 2025).

Experiment [1] deals with human CMV DNA polymerase UL54 (Human cytomegalovirus (strain AD169) (HHV-5) (Human herpesvirus 5), UniProt P08546). In words: CMV polymerase biochemical assay (molecular beacon-based). In a few lines: (§1)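 Full-length wild-type N-terminal MBP-fusion polymerases from sf9 cells were used at 100 pM (CMV) or 625 pM (HSV) in Tris pH 7.5, 10 mM MgCl2, and preincubated with inhibitor for 30 min at RT. Reactions with 1.25 uM each dNTP, 200 nM primer and 100 nM molecular beacon ran 60 min (CMV) or 20 min (HSV) at RT. Fluorescence was read at 480/535 nm and IC50 derived.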

For experiment [2], the target named is human HSV DNA polymerase UL30 (Human herpesvirus 1 (strain 17) (HHV-1) (Human herpes simplex virus 1), UniProt P04293). The experiment in a line: HSV polymerase biochemical assay (molecular beacon-based). In a few lines:
as §1

Experiment [3] concerns Luciferase-encoding HCMV, AD169 strain. In words: CMV Luciferase assay (cellular herpesvirus replication). The format is cell-based. Conditions: Human betaherpesvirus 5, AD169, read-out: CMV-Luc Cellular EC50. In a few lines: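 Reporter HCMV AD169 with luciferase driven by late pp28 promoter, so signal requires viral DNA replication; NN-NHDF fibroblasts in 2% FBS medium, compound (0.0159–50 or 0.00318–10 μM, 0.5% DMSO) added 1 h before infection at MOI 1. Luminescence read 72 hpi; EC50 from 4-parameter fit of control-normalized %.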

What is called IC50 is the concentration needed to halve the response being measured. A higher IC50 goes with weaker potency. The term EC50 denotes the concentration at which the effect is half-maximal. `O=C(NCc1ccc(Cl)cc1)c1ccc2n(c1=O)CCN(CC1(N3CCOC3=O)CC1)C2=O` [Example 89-1, N-(4-chlorobenzyl)-1,6-dioxo-2-((1-(2-oxooxazolidin-3-yl)cyclopropyl)methyl)-2,3,4,6-tetrahydro-1H-pyrido[1,2-a]pyrazine-7-carboxamide]: the IC50 was determined as 0.0793 µM in experiment [1] and 1.26 µM in experiment [2]. In experiment [3], the EC50 came to 4.9 µM.
The matching figures for `N#Cc1ccc(CNC(=O)c2ccc3n(c2=O)CCN(CC2(N4CCOC4=O)CC2)C3=O)cc1` [Example 89-2]: 0.174 µM, 2.52 µM and 3.33 µM.
The matching figures for `CN(C)S(=O)(=O)C1(CN2CCn3c(ccc(C(=O)NCc4ccc(Cl)cc4)c3=O)C2=O)CC1` [Example 90-1, N-(4-chlorobenzyl)-2-((1-(N,N-dimethylsulfamoyl)cyclopropyl)methyl)-1,6-dioxo-2,3,4,6-tetrahydro-1H-pyrido[1,2-a]pyrazine-7-carboxamide]: 0.0004 µM, 0.0123 µM and 0.0134 µM.
Regarding `CC1CN(CCN(C)S(C)(=O)=O)C(=O)c2ccc(C(=O)NCc3ccc(Cl)cc3)c(=O)n21` (stereo not drawn) [Example 91, N-(4-chlorobenzyl)-4-methyl-2-(2-(N-methylmethylsulfonamido)ethyl)-1,6-dioxo-2,3,4,6-tetrahydro-1H-pyrido[1,2-a]pyrazine-7-carboxamide], the results for the IC50 in experiment [1] and in experiment [2] were 0.186 µM and 2.25 µM, respectively. Further, the concentration for a half-maximal effect (EC50) in experiment [3] was determined as 2.48 µM.
The like results for `CC1Cn2c(ccc(C(=O)NCc3ccc(Cl)cc3)c2=O)C(=O)N1CCN(C)S(C)(=O)=O` (stereo not drawn) [Example 92, N-(4-chlorobenzyl)-3-methyl-2-(2-(N-methylmethylsulfonamido)ethyl)-1,6-dioxo-2,3,4,6-tetrahydro-1H-pyrido[1,2-a]pyrazine-7-carboxamide] were, in that order, 0.311 µM, 1.34 µM and 2.98 µM.
In the case of `Cc1cc(C(=O)NCc2ccc(C#N)cc2)c(=O)n2c1C(=O)N(CC1(S(=O)(=O)C3CC3)CC1)CC2` [Example 93-1, N-(4-cyanobenzyl)-2-((1-(cyclopropylsulfonyl)cyclopropyl)methyl)-9-methyl-1,6-dioxo-2,3,4,6-tetrahydro-1H-pyrido[1,2-a]pyrazine-7-carboxamide], the IC50 in experiment [1] came to 0.0011 µM; in experiment [2], 0.0467 µM. In addition, in experiment [3], the half-maximal effective concentration (EC50) came out at 0.0386 µM.
On to `Cc1cc(C(=O)NCc2ccc(Cl)cc2)c(=O)n2c1C(=O)N(CC1(S(=O)(=O)C3CC3)CC1)CC2` [Example 93-2], for which the IC50 in experiment [1] was 0.0008 µM; in experiment [2], 0.0286 µM. The EC50 in experiment [3] was found to be 0.0153 µM.
The like results for `Cc1cc(C(=O)NCc2ccc(C#N)c(F)c2)c(=O)n2c1C(=O)N(CC1(S(=O)(=O)C3CC3)CC1)CC2` [Example 93-3] were, in that order, 0.0059 µM, 0.0283 µM and 0.021 µM.
The like results for `CC1(S(=O)(=O)C2(CN3CCn4c(ccc(C(=O)NCc5ccc(C#N)cc5)c4=O)C3=O)CC2)CC1` [Example 94-1] were, in that order, 0.0006 µM, 0.0332 µM and 0.0133 µM.
For `CC1(S(=O)(=O)C2(CN3CCn4c(ccc(C(=O)NCc5ccc(C#N)c(F)c5)c4=O)C3=O)CC2)CC1` [Example 94-2], the IC50 turned out to be 0.0003 µM in experiment [1] and 0.0253 µM in experiment [2]. In experiment [3], the EC50 turned out to be 0.0079 µM.
The matching figures for `CS(=N)(=O)C1(CN2CCn3c(ccc(C(=O)NCc4ccc(Cl)cc4)c3=O)C2=O)CC1` (stereo not drawn) [Example 95, N-(4-chlorobenzyl)-2-((1-(S-methylsulfonimidoyl)cyclopropyl)methyl)-1,6-dioxo-2,3,4,6-tetrahydro-1H-pyrido[1,2-a]pyrazine-7-carboxamide]: 0.0166 µM, 0.722 µM and 0.263 µM.
For `N#Cc1ccc(CNC(=O)c2ccc3n(c2=O)CCN(CC2(S(=O)(=O)C4(C(F)(F)F)CC4)CC2)C3=O)cc1` [Example 97-1], the values for the half-maximal inhibitory concentration (IC50) in experiment [1] and in experiment [2] were 0.005 µM and 0.122 µM, respectively. Further, the EC50 in experiment [3] came out at 0.222 µM.
The matching figures for `N#Cc1ccc(CNC(=O)c2ccc3n(c2=O)CCN(CC2(S(=O)(=O)C4(C(F)(F)F)CC4)CC2)C3=O)cc1F` [Example 97-2]: 0.0032 µM, 0.0908 µM and 0.189 µM.
Consider `N#Cc1ccc(CNC(=O)c2ccc3n(c2=O)CCN(CC2(S(=O)(=O)C4CC4(F)F)CC2)C3=O)cc1` (stereo not drawn) [Example 98-1], for which the IC50 in experiment [1] was found to be 0.0015 µM; in experiment [2], 0.0575 µM. Moreover, the EC50 in experiment [3] was 0.0652 µM.
Consider `N#Cc1ccc(CNC(=O)c2ccc3n(c2=O)CCN(CC2(S(=O)(=O)C4CC4(F)F)CC2)C3=O)cc1F` (stereo not drawn) [Example 98-2], for which the IC50 stood at 0.0012 µM in experiment [1] and 0.0576 µM in experiment [2]. The EC50 in experiment [3] turned out to be 0.041 µM.
The matching figures for `N#Cc1ccc(CNC(=O)c2ccc3n(c2=O)CCN(CC2(S(=O)(=O)C4CC4(F)F)CC2)C3=O)cc1Cl` (stereo not drawn) [Example 98-3]: 0.0017 µM, 0.2 µM and 0.102 µM.
The matching figures for `N#Cc1ccc(CNC(=O)c2ccc3n(c2=O)CCN(CC2(S(=O)(=O)C4(C(F)F)CC4)CC2)C3=O)cc1` [Example 99-1]: 0.001 µM, 0.0494 µM and 0.0439 µM.
Turning to `N#Cc1ccc(CNC(=O)c2ccc3n(c2=O)CCN(CC2(S(=O)(=O)C4(C(F)F)CC4)CC2)C3=O)cc1F` [Example 99-2], the half-maximal inhibitory concentration (IC50) in experiment [1] was determined as 0.0007 µM; in experiment [2], 0.0524 µM. For the same compound, the concentration for a half-maximal effect (EC50) in experiment [3] amounted to 0.0301 µM.
Take `N#Cc1ccc(CNC(=O)c2ccc3n(c2=O)CCN(CC2(S(=O)(=O)C4(C(F)F)CC4)CC2)C3=O)cc1Cl` [Example 99-3]: the IC50 in experiment [1] was 0.0008 µM; in experiment [2], 0.201 µM. Further, the half-maximal effective concentration (EC50) in experiment [3] is 0.172 µM.
The like results for `CC1(CS(=O)(=O)C2(CN3CCn4c(ccc(C(=O)NCc5ccc(Cl)cc5)c4=O)C3=O)CC2)COC1` [Example 103-1] were, in that order, 0.0094 µM, 0.109 µM and 0.237 µM.
With `CC1(CS(=O)(=O)C2(CN3CCn4c(ccc(C(=O)NCc5ccc(C#N)cc5)c4=O)C3=O)CC2)COC1` [Example 103-2], the results for the IC50 in experiment [1] and in experiment [2] were 0.0011 µM and 0.108 µM, respectively. In addition, the EC50 in experiment [3] was 1.27 µM.
The like results for `CC1(CS(=O)(=O)C2(CN3CCn4c(ccc(C(=O)NCc5ccc(C#N)c(F)c5)c4=O)C3=O)CC2)COC1` [Example 103-3] were, in that order, 0.0108 µM, 0.17 µM and 0.791 µM.
For the compound `O=C(NCc1ccc(Cl)cc1)c1ccc2n(c1=O)CCN(CC1(S(=O)(=O)CC3(C(F)(F)F)CC3)CC1)C2=O` [Example 104-1], the concentration for half-maximal inhibition (IC50) in experiment [1] came out at 0.0186 µM; in experiment [2], 0.185 µM. Moreover, the half-maximal effective concentration (EC50) in experiment [3] worked out at 0.639 µM.
For `N#Cc1ccc(CNC(=O)c2ccc3n(c2=O)CCN(CC2(S(=O)(=O)CC4(C(F)(F)F)CC4)CC2)C3=O)cc1` [Example 104-2], the IC50 in experiment [1] was found to be 0.0243 µM; in experiment [2] it was 0.301 µM. For the same compound, in experiment [3], the 50% effective concentration (EC50) is 1.82 µM.
The matching figures for `N#Cc1ccc(CNC(=O)c2ccc3n(c2=O)CCN(CC2(S(=O)(=O)CC4(C(F)(F)F)CC4)CC2)C3=O)cc1F` [Example 104-3]: 0.0101 µM, 0.273 µM and 1.08 µM.
For the compound `O=C(NCc1ccc(Cl)cc1)c1ccc2n(c1=O)CCN(CC1(S(=O)(=O)C3CCOCC3)CC1)C2=O` [Example 105-1, N-(4-chlorobenzyl)-1,6-dioxo-2-((1-((tetrahydro-2H-pyran-4-yl)sulfonyl)cyclopropyl)methyl)-2,3,4,6-tetrahydro-1H-pyrido[1,2-a]pyrazine-7-carboxamide], the results for the half-inhibitory concentration (IC50) in experiment [1] and in experiment [2] were 0.0015 µM and 0.0397 µM, respectively. The EC50 in experiment [3] was determined as 0.0501 µM.
The like results for `N#Cc1ccc(CNC(=O)c2ccc3n(c2=O)CCN(CC2(S(=O)(=O)C4CCOCC4)CC2)C3=O)cc1` [Example 105-2] were, in that order, 0.0025 µM, 0.0643 µM and 0.178 µM.
In the case of `CC(C)(C)[S+]([O-])C1(CN2CCn3c(ccc(C(=O)NCc4ccc(C#N)cc4)c3=O)C2=O)CC1` (stereo not drawn) [Example 106, 2-((1-(tert-Butylsulfinyl)cyclopropyl)methyl)-N-(4-cyanobenzyl)-1,6-dioxo-2,3,4,6-tetrahydro-1H-pyrido[1,2-a]pyrazine-7-carboxamide], the IC50 in experiment [1] is 0.0334 µM; in experiment [2], 0.972 µM. Besides, the EC50 in experiment [3] stood at 1.12 µM.
The like results for `O=C(NCc1ccc(Cl)cc1)c1ccc2n(c1=O)CCN(CC1(S(=O)(=O)CC3CC3)CC1)C2=O` [Example 107-1, N-(4-chlorobenzyl)-2-((1-((cyclopropylmethyl)sulfonyl)cyclopropyl)methyl)-1,6-dioxo-2,3,4,6-tetrahydro-1H-pyrido[1,2-a]pyrazine-7-carboxamide] were, in that order, 0.0019 µM, 0.0616 µM and 0.111 µM.
As to `N#Cc1ccc(CNC(=O)c2ccc3n(c2=O)CCN(CC2(S(=O)(=O)CC4CC4)CC2)C3=O)cc1` [Example 107-2], the IC50 was 0.0025 µM in experiment [1] and 0.15 µM in experiment [2]. Further, the EC50 in experiment [3] amounted to 0.2 µM.
For the compound `N#Cc1ccc(CNC(=O)c2ccc3n(c2=O)CCN(CC2(S(=O)(=O)CC4CC4)CC2)C3=O)cc1F` [Example 107-3], the values for the IC50 in experiment [1] and in experiment [2] were 0.0022 µM and 0.0726 µM, respectively. Besides, in experiment [3], the EC50 stood at 0.174 µM.
